The subject of test [1] is HLA-DR4 restricted mouse T cell hybridoma line (DR4.CII.36.8) with HLA-DRB1*04:01-expressing Boleth cells. Kind of test: HLA-DR4-restricted peptide-specific T cell-based assay (hybridoma assay). The conditions noted are these: Mus musculus, T-cell, 6 h, inhibition of IL-2 production, CII259-273 peptide presented by Boleth cells. The text has this:
(§1) The screening was made through two sets of HLA-DR/peptide-dependent assays: a peptide-dependent Homogeneous Time Resolved Fluorescence (HTRF) binding assay followed by an HLA-DR dependent, peptide-specific T cell functional assay (HLA-DR4-restricted peptide-specific T cell-based assay hybridoma assay). The HTRF binding assay was designed to measure the ability of the small molecule to inhibit the loading of a fluorescently labeled high-affinity peptide onto HLA-DR peptide binding groove. The peptide-specific T cell functional assay assesses T cell activation resulting from proper peptide presentation onto HLA-DR expressed on the surface of the antigen-presenting cells to the T cell and is used to screen compounds able to inhibit such HLA-DR/peptide-dependent T cell activation.
HLA-DR4-Restricted Peptide-Specific T Cell-Based Assay (Hybridoma Assay)
The hybridoma assay was used to measure compound inhibition of TL-2 production from an HLA-DR4 restricted mouse T cell hybridoma line (DR4.CII.36.8) that was antigen-specific for collagen II259-273 (CII259-273) peptide when presented with an HLA-DR4 expressing Antigen Presenting Cell (APC) cell line (i.e., Boleth).
To the HLA-DRB1*04:01-expressing B cell line (Boleth cell line from International Histocompatibility Working Group (IHWG), ref #IHW09031) was presented the collagen II 259-273 peptide (CII259-273, GIAGFKGEQGPKGEP) to mouse T cell hybridoma (DR4.CII.36.8 T cell hybridoma; clone 36.8, expressing a CII259-273-specific, HLA-DRB1*04:01-restricted T cell receptor). Upon proper CII259-273 peptide presentation, the T cell hybridoma was activated and thus produced IL-2 cytokine, whose level in the cell culture supernatant was detected using mouse IL-2 AlphaLISA kit (Perkin Elmer, Cat: AL511F).
This assay was performed in a 384-well plate (polypropylene V-bottom Greiner bio-one, ref #784075) by: (i) pre-incubation of 20 μL of 1.25 million/mL Boleth cells (25,000 cells) resuspended in DMEM/1% fetal calf serum (FCS; Gibco, ref #16140-071) with 20 μL of 2.5× final concentration of compound of interest in DMEM/1% serum/0.75% DMSO at 37° C. for 1 hr in the incubator, then (ii) 10 μL of 5 million/mL (50,000 cells) DR4.CII.36.8 T cell hybridoma cells resuspended in DMEM/1% FCS was added and incubated for 6 h at 37° C. in the incubator. Supernatant was then collected and mouse IL-2 detected using AlphaLISA kit (ref #AL511F). Compounds were tested in duplicate, with 8-point titration. Mean±SD of AlphaLISA units at each compound concentration was used for compound IC50 calculation. The negative control for this experiment was run without peptide stimulation and used a DMSO vehicle wherein no compound of interest was added. The positive control was run with peptide stimulation and used a DMSO vehicle wherein no compound of interest was added. Both the negative and positive controls were run in 8 replicates each. Curve fitting and IC50 calculation for dose response data was performed by GraphPad software 6 or higher (GraphPad Software, San Diego, CA). Dose response data was plotted versus the log of compound concentration and IC50 was determined using 4-parameter logistic (4-PL) curve fitting.

Test [2] deals with HLA-DRB1*0401 (Homo sapiens (Human), UniProt P01903+P01911, A100K/A169T/DEL228-266/F76Y/I96L/K127E/L162R/M171V/N62H/P40V/Q125Y/R42H/S133A/S149N/S66Y/V115G/V209L/W38E). Nature of the test: HLA-DR4 HTRF assay. Type of test: binding. To be noted: inhibition of loading of Alexa Fluor 647-labeled Cit-CII peptide onto HLA-DR4 (CLIP cleaved).
Text: as §1
The HLA-DR4 HTRF assay is based on HTRF technology and designed to measure ability of compounds to prevent loading of high-affinity Alexa Fluor 647-labeled Citrullinated Collagen 111236-1249 peptide (named Cit-CII/AF647, aa1236-1249, LQYM-Cit-ADQAAGGLR; Alexa Fluor 647 dye commercially available from Invitrogen) onto HLA-DRB1*0401. The HTRF assay technology is based on the energy transfer between two fluorophores, a donor and an acceptor, when in close proximity. The HLA-DR4 protein construct was uniquely designed for this assay and has (i) the α and […] subunits fused to human Fc chains and (ii) the invariant chain-associated peptide (CLIP peptide, aa85-101), the universal moderate/low-affinity HLA-DR binder, attached to the beta chain through a HRV3C protease-cleavable linker.
Because of the low stability of peptide free HLA-DR4 heterodimer, the construct was purified and delivered with CLIP peptide attached to the N-terminal of the β chain. The HLA-DR4 heterodimer was pre-treated with 3 μL HRV3C protease (Novagen E71493-3) (˜2 U/μL) per mg of the cleavable protein to cleave CLIP peptide and incubated overnight (>16 hrs) at 4° C. This method yielded at least 80% cleavage and allowed the CLIP peptide to be potentially exchanged with the fluorescently labeled high affinity cit-CII1236-1249 peptide. A batch of […] protein with CLIP cleaved was prepared for multiple experiments and was stable for several months when stored at 4° C.
In this assay, anti-human Fc antibody labeled with Tb-Cryptate probe was used as the donor (commercially available from Cisbio—PAb Anti-human IgG-Tb Cryptate, Cat #61HFCTAB) and high affinity peptide Citrullinated CII (cit-CII) labeled with Alexa 647 fluorophore was utilized as the acceptor. Inhibitors of the exchange of the pre-cleaved CLIP peptide for the high affinity cit-CII1236-1249 peptide onto HLA-DRB1*04:01 caused a decrease in HTRF signal as measured by the ratio of the 665 nm/620 nm emitted signal. Screening compounds were robotically pre-dispensed (150 nL, Hummingbird, DigiLab/CyBio AG) onto black, round bottom, nontreated, 1536-well assay plates (Corning #3939), were incubated with 3 nM HLA-DR4 (with CLIP cleaved) plus 1 nM Human IgG-Tb (anti-Fc-Tb) Antibody for 45 min prior to addition of 40 nM Cit-CII peptide labeled with Alexa-647. The negative control was DMSO plus 1 nM Human IgG-Tb (anti-Fc-Tb) Antibody, incubated for 45 minutes before addition of 40 nM Cit-CII peptide labeled with Alexa-647. The positive control was DMSO plus 3 nM HLA-DR4 (with CLIP cleaved) plus 1 nM Human IgG-Tb (anti-Fc-Tb) Antibody with 40 nM Cit-CII peptide labeled with Alexa-647 added after a 45-minute incubation. Plates were centrifuged at 1000 rpm for 1 minute and then incubated at 37° C., at 90% relative humidity for 90 minutes. After incubation, plates were read on a spectrophotometer, the Pherastar FS (BMG Labtech), in HTRF mode. The HTRF ratio as well as percent inhibition was calculated. Curve fitting and IC50 calculation for dose response data was performed by Microsoft Excel, 3DX (Janssen proprietary software) or Graphpad Prism (Graphpad Software, San Diego, CA). […]

Each structure is given as a SMILES string.

This is an account of results in patent publication US12516038B2, “Inhibitors of antigen presentation by HLA-DR” (Janssen Pharmaceutica NV, priority 2020, dated 2026).

`O=C1CCOc2cc(OC(c3ccncc3)c3ccccn3)ccc21` (racemic) [Example 6, (R,S)-7-(Pyridin-2-yl(pyridin-4-yl)methoxy)chroman-4-one]: the IC50 – broadly, the concentration that gives 50% inhibition – is 1400 nM in test [1] and 1800 nM in test [2].
For `N#Cc1ccc(C(Oc2ccc3c(c2)OCCC3=O)c2ccncc2)cc1` (racemic) [Example 10, (R,S)-4-(((4-Oxochroman-7-yl)oxy)(pyridin-4-yl)methyl)benzonitrile], the IC50 in test [1] was found to be 8700 nM; in test [2], 770 nM.
On the same counts, the results for `Cc1c(OC(c2ccncc2)c2ccc(C(N)=O)cc2)ccc2c1OC(C)(C)CC2=O` (racemic) [Example 113, (R,S)-4-(pyridin-4-yl((2,2,8-trimethyl-4-oxochroman-7-yl)oxy)methyl)benzamide] are 1000 nM and 820 nM.
On the same counts, the results for `Cc1c(OC2CCCc3cc(C#N)ccc32)ccc2c1OCCC2=O` (racemic) [Example 122, (R,S)-5-((8-Methyl-4-oxochroman-7-yl)oxy)-5,6,7,8-tetrahydronaphthalene-2-carbonitrile] are 15000 nM and 1100 nM.
For `Cc1c(OC2CCCc3cc(C(N)=O)ccc32)ccc2c1OCCC2=O` (racemic) [Example 123, (R,S)-5-((8-Methyl-4-oxochroman-7-yl)oxy)-5,6,7,8-tetrahydronaphthalene-2-carboxamide] the same measures were 15000 nM and 520 nM.
Regarding `O=C1CCOc2cc(O[C@@H](c3ccncc3)c3cccc(O)c3)ccc21` (single isomer, unassigned) [Example 5b, (*S)-7-((3-Hydroxyphenyl)(pyridin-4-yl)methoxy)chroman-4-one], the IC50 in test [1] is 5200 nM; in test [2], 14000 nM.
For `N#Cc1ccccc1[C@@H](Oc1ccc2c(c1)OCCC2=O)c1ccncc1` (single isomer, unassigned) [Example 7b, (*S)-2-(((4-Oxochroman-7-yl)oxy)(pyridin-4-yl)methyl)benzonitrile] the same measures were 5400 nM and 960 nM.
Turning to `NC(=O)c1ccccc1[C@H](Oc1ccc2c(c1)OCCC2=O)c1ccncc1` (single isomer, unassigned) [Example 8a, (*R)-2-(((4-Oxochroman-7-yl)oxy)(pyridin-4-yl)methyl)benzamide], the IC50 in test [1] is more than 15000 nM; in test [2], 680 nM.
In the case of `NC(=O)c1ccccc1[C@@H](Oc1ccc2c(c1)OCCC2=O)c1ccncc1` (single isomer, unassigned) [Example 8b, (*S)-2-(((4-Oxochroman-7-yl)oxy)(pyridin-4-yl)methyl)benzamide], the half-maximal inhibitory concentration (IC50) in test [1] was found to be 6500 nM; in test [2], 820 nM.
With `N#Cc1ccc([C@H](Oc2ccc3c(c2)OCCC3=O)c2ccncc2)cc1` (single isomer, unassigned) [Example 10b, (*S)-4-(((4-oxochroman-7-yl)oxy)(pyridin-4-yl)methyl)benzonitrile], the figures for the IC50 in test [1] and in test [2] were more than 15000 nM and 910 nM, respectively.
For `COc1cccc([C@H](Oc2ccc3c(c2)OCCC3=O)c2ccncc2)c1` (single isomer, unassigned) [Example 13a, (*R)-7-((3-methoxyphenyl)(pyridin-4-yl)methoxy)chroman-4-one] the same measures were more than 15000 nM and 2000 nM.
On the same counts, the results for `COc1ccccc1[C@@H](Oc1ccc2c(c1)OCCC2=O)c1ccncc1` (single isomer, unassigned) [Example 14b, (*S)-7-((2-Methoxyphenyl)(pyridin-4-yl)methoxy)chroman-4-one] are 11000 nM and 1900 nM.
On the same counts, the results for `Cc1cc([C@@H](Oc2ccc3c(c2)OCCC3=O)c2ccc(C(N)=O)cc2)ccn1` (single isomer, unassigned) [Example 15b, (*S)-4-((2-Methylpyridin-4-yl)((4-oxochroman-7-yl)oxy)methyl)benzamide] are 8100 nM and 770 nM.
Turning to `O=C1CCOc2cc(O[C@@H](c3ccncc3)c3ccc(OCc4ccccc4)cc3)ccc21` (single isomer, unassigned) [Example 16a, (*R)-7-((4-(benzyloxy)phenyl)(pyridin-4-yl)methoxy)chroman-4-one], the 50% inhibitory concentration (IC50) in test [1] worked out at 12000 nM; in test [2], 8100 nM.
On the same counts, the results for `O=C1CCOc2cc(O[C@H](c3ccncc3)c3ccc(OCc4ccccc4)cc3)ccc21` (single isomer, unassigned) [Example 16b, 7-((4-(benzyloxy)phenyl)(pyridin-4-yl)methoxy)chroman-4-one] are more than 15000 nM and 9900 nM.
With `NC(=O)c1ccc(C(Oc2ccc3c(c2)OCCC3=O)c2ccnc(C(F)(F)F)c2)cc1` (single isomer, unassigned) [Example 18a, (*R)-4-(((4-oxochroman-7-yl)oxy)(2-(trifluoromethyl)pyridin-4-yl)methyl)benzamide], the half-maximal inhibitory concentration (IC50) in test [1] is more than 15000 nM; in test [2], 1400 nM.
In the case of `CCCc1c(O[C@H](c2ccncc2)c2ccc(C(N)=O)cc2)ccc2c1OCCC2=O` (single isomer, unassigned) [Example 80b, (*S)-4-(((4-Oxo-8-propylchroman-7-yl)oxy)(pyridin-4-yl)methyl)benzamide], in test [2], the IC50 was found to be 960 nM.
